We go through seven molecules from paper PMC12673082 (Nature Communications, 2025).

Assay [1] has as its system human P2X4. To be noted: cited from earlier work.
For assay [2], the system named is human P2X7. The experiment in a line: Literature IC50. To be noted: from Table S1 values.
Assay [3] concerns the target T1, mP2X7 (Mus musculus, UniProt Q9Z1M0).
T1 sequence (Q9Z1M0 1-595): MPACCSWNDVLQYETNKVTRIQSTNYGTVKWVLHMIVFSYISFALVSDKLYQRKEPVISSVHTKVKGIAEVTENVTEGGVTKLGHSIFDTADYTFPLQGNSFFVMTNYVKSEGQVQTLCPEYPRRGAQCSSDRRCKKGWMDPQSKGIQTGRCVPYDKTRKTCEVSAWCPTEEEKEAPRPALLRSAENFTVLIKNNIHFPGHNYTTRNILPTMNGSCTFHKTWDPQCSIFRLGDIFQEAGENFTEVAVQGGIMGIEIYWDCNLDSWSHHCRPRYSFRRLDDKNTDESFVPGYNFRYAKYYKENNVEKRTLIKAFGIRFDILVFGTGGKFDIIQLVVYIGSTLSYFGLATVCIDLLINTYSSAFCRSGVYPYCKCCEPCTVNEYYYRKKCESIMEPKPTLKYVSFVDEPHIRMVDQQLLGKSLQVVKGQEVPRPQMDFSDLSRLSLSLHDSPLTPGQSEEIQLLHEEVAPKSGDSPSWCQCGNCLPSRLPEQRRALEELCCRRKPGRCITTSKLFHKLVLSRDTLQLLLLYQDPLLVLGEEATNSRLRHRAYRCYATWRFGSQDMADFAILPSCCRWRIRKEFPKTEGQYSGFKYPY
As to the kind of experiment: Whole-cell patch clamp, ATP-evoked current, transfected HEK293. It counts as cell-based.

The target of assay [4] is T2, mP2X7 A312V (Mus musculus, UniProt Q9Z1M0, A312V).
T2 sequence (Q9Z1M0 1-595 A312V): T1 sequence (Q9Z1M0 1-595) with A312V
The experiment in a line: Whole-cell patch clamp, mP2X7 mutant. It counts as cell-based. To be noted: read-out: EC50 (apparent affinity for ATP); m7A312V. On the technique in general: Patch clamp records ionic current or voltage across a cell membrane.

The test system of assay [5] is human P2X7. To be noted: cited from earlier work.
The target of assay [6] is T3, hP2X7 (Homo sapiens, UniProt Q99572).
T3 sequence (Q99572 1-595): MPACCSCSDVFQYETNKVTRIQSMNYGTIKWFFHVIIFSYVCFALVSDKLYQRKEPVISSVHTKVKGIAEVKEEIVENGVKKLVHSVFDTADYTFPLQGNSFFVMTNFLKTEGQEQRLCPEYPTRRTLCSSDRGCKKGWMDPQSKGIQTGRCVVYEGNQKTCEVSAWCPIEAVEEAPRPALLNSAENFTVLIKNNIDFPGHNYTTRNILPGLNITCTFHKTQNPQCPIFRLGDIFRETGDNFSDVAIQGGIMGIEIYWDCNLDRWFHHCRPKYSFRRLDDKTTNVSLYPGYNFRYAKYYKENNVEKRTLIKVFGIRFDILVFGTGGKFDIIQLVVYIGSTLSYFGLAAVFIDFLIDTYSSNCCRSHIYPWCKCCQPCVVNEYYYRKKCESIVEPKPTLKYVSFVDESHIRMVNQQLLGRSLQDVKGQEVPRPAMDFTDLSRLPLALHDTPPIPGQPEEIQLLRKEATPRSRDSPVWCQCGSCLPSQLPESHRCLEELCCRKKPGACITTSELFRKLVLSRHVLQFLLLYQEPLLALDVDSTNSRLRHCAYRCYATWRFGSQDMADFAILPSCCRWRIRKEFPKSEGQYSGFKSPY
As to the kind of experiment: Whole-cell patch clamp, ATP-evoked current, transfected HEK293. It counts as cell-based.

Assay [7] concerns the target T4, rP2X7 (Rattus norvegicus, UniProt Q64663).
T4 sequence (Q64663 1-595): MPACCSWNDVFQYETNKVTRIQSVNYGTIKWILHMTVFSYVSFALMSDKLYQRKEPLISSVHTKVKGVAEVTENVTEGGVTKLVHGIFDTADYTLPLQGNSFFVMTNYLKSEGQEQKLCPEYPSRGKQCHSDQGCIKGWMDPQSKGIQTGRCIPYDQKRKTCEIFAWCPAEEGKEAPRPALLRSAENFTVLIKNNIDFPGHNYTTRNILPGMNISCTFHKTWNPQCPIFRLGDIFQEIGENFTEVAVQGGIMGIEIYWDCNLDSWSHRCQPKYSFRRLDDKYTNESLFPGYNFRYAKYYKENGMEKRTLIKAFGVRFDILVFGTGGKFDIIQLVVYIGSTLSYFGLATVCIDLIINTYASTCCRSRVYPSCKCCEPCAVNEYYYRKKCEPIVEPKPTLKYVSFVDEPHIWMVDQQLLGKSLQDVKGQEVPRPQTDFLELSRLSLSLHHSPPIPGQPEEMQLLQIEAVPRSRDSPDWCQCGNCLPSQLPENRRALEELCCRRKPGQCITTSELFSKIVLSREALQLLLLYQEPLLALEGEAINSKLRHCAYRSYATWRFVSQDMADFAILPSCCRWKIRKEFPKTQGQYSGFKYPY
The description is as above. It counts as cell-based. To be noted: HEK293, read-out: inhibition rate.

Assay [8] concerns the target hP2X7 I68F (Homo sapiens, UniProt Q99572, I68F). As to the kind of experiment: Whole-cell patch clamp, hP2X7 mutant. It counts as cell-based.
Assay [9] addresses hP2X7 Y295F (Homo sapiens, UniProt Q99572, Y295F). As to the kind of experiment: Whole-cell patch clamp, hP2X7 mutant. It counts as cell-based.
The target of assay [10] is hP2X7 E305F (Homo sapiens, UniProt Q99572, E305F). As to the kind of experiment: Whole-cell patch clamp, hP2X7 mutant. The format is cell-based.
For assay [11], the target named is hP2X7 F88A (Homo sapiens, UniProt Q99572, F88A). As to the kind of experiment: Whole-cell patch clamp, hP2X7 mutant. The format is cell-based. To be noted: h7F88A, 30 μM (Fig. S3b).
In assay [12] the target is hP2X7 V312A (Homo sapiens, UniProt Q99572, V312A). As to the kind of experiment: Whole-cell patch clamp, hP2X7 mutant. The format is cell-based.
The target in assay [13] is hP2X7 F103A (Homo sapiens, UniProt Q99572, F103A). As to the kind of experiment: Whole-cell patch clamp, hP2X7 mutant. It counts as cell-based. To be noted: h7F103A, 30 μM (Fig. S3b).
In assay [14] the target is hP2X7 M140E (Homo sapiens, UniProt Q99572, M140E). The experiment in a line: Whole-cell patch clamp, hP2X7 mutant. The format is cell-based. To be noted: h7M140E, 30 μM (Fig. S3b).
Assay [15] addresses hP2X7 E305C (Homo sapiens, UniProt Q99572, E305C). As to the kind of experiment: Whole-cell patch clamp, hP2X7 mutant. The format is cell-based. To be noted: h7E305C, 30 μM (Fig. S3b).
The subject of assay [16] is human P2X3. To be noted: read-out: IC50 (half-maximal inhibitory concentration); hP2X3; cited from earlier work.
Setting [17] is: HEK293, read-out: inhibition rate.

The structures appear in SMILES notation. Where a chain is given by its changes, count along the chain named.

In general, EC50 refers to the concentration needed to bring the measured effect to its halfway point. Broadly, the inhibition is the relative decrease from the control value, in per cent.

Chain of hP2X7 Y295F (Q99572 whole entry Y295F): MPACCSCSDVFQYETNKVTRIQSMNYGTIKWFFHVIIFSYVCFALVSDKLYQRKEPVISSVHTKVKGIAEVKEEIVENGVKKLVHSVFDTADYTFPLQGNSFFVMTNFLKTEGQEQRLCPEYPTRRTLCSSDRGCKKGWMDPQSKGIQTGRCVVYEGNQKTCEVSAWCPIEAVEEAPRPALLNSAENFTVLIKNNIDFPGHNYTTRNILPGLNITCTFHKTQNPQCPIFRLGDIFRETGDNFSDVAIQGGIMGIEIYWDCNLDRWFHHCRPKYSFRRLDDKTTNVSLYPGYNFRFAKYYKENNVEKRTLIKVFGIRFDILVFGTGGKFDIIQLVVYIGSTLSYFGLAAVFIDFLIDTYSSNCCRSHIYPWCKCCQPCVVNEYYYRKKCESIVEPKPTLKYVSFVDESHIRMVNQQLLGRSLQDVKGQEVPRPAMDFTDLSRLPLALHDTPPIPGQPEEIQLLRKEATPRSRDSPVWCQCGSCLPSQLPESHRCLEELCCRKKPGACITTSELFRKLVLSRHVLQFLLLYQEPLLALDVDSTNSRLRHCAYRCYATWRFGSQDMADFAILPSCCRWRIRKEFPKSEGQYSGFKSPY
Chain of hP2X7 E305F (Q99572 whole entry E305F): as the sequence (Q99572 whole entry Y295F) above, with F295Y, E305F counted along it
Chain of hP2X7 V312A (Q99572 whole entry V312A): as the sequence (Q99572 whole entry Y295F) above, with F295Y, V312A counted along it
Chain of hP2X7 I68F (Q99572 whole entry I68F): as the sequence (Q99572 whole entry Y295F) above, with I68F, F295Y counted along it
Chain of hP2X7 F88A (Q99572 whole entry F88A): as the sequence (Q99572 whole entry Y295F) above, with F88A, F295Y counted along it
Chain of hP2X7 M140E (Q99572 whole entry M140E): as the sequence (Q99572 whole entry Y295F) above, with M140E, F295Y counted along it
Chain of hP2X7 E305C (Q99572 whole entry E305C): as the sequence (Q99572 whole entry Y295F) above, with F295Y, E305C counted along it
Chain of hP2X7 F103A (Q99572 whole entry F103A): as the sequence (Q99572 whole entry Y295F) above, with F103A, F295Y counted along it

Turning to `CC(C)c1cc(Br)c(NC(=O)Nc2cccnc2)c(Br)c1` [BX430], the IC50 in assay [1] (P2X4) was 0.54 µM. In [1], the “IC50 for hP2X4, fold lower than for mP2X4 and rP2X4” value is listed as “more than 20 fold”; the “fold difference between hP2X4 and mP2X4” value is listed as above 20 fold.

Take `O=C(CC12CC3CC(CC(C3)C1)C2)Nc1cccc2nc(NCCNCCO)ccc12` [AZ10606120]: in assay [2], the “apparent affinity (IC50) for hP2X7, fold higher than for mP2X7” value is 500 fold and the “apparent affinity (IC50) for hP2X7, fold higher than for rP2X7” value was 1587 fold.

For the molecule `Nc1ncnc2c1ncn2[C@@H]1O[C@H](COP(=O)(O)OP(=O)(O)OP(=O)(O)O)[C@@H](O)[C@H]1O` [ATP, reference compound], the half-maximal effective concentration (EC50) is 782 ± 71 µM in assay [3] (read-out: EC50 (apparent affinity for ATP), m7WT) and 1420 ± 170 µM in assay [4].

`COc1ccc(CC(=O)NC(NC(=NC#N)Nc2cccc3ncccc23)C(C)(C)C)cc1OC` (centres unmarked) [A740003, N-(1-{[(cyanoimino)(5-quinolinylamino)methyl]amino}-2,2-dimethylpropyl)-2-(3,4-dimethoxyphenyl)acetamide]: the IC50 in assay [5] (P2X7) was 0.0437 µM. Also, in [5], the “fold difference in IC50 between hP2X7 and mP2X7” value is recorded as 37 fold.

For `C=CC[C@H]1c2ccc(OC)c(OC)c2CN2CCc3cc4c(cc3[C@@H]12)OCO4` [PSFL1190, (13S,13aR)-13-allyl-9,10-dimethoxy-5,8,13,13a-tetrahydro-6H-1,3dioxolo[4,5-g] isoquinolino[3,2-a]isoquinoline], in [6], the IC50 is 12.6 ± 2.9 µM; the “fold difference in affinity for hP2X7 between PSFL1191 and PSFL1190” value is reported as “more than 50 fold”. Besides, in assay [7], the inhibition at 30 µM came out at 12.1 ± 2.4%. Further, the inhibition at 30 µM in [3] (setting [17]) turned out to be 11.8 ± 6.1%.

In the case of `COc1ccc2cc3[n+](cc2c1OC)CCc1cc2c(cc1-3)OCO2` [berberine], the IC50 in assay [6] is 12.7 ± 0.9 µM; in assay [8], 39.9 ± 5.8 µM; in assay [9], 46.6 ± 7.8 µM; in assay [10], 87.7 ± 4.3 µM; in assay [12], above 300 µM. Moreover, the “inhibitory effect vs h7WT” value in assay [8] (h7I68F, 30 μM (Fig. S3b)) is recorded as “notably attenuated”; in [9] (h7Y295F, 30 μM (Fig. S3b)), “notably attenuated”; in [10] (h7E305F, 30 μM (Fig. S3b)), “notably attenuated”; in assay [11], “notably attenuated”; in [12] (h7V312A, 30 μM (Fig. S3b)), “notably attenuated”; in [13] it was “notably attenuated”. For the same molecule, the “inhibitory effect vs h7WT” value in assay [14] and in assay [15] was “notably attenuated” each time. Also, the inhibition at 300 µM in assay [7] came out at 19.2 ± 4.3%; in [3] (setting [17]) it was 8.02 ± 2.7%.

For the molecule `CNC(=O)c1cc(F)c(-c2nc3cc(C)ccn3c2C[C@H]2CN(C(=O)OC)CCO2)c(F)c1` [BLU-5937], in [16], the IC50 was 0.025 µM.
